Source: US8143241B2, “DNA damage repair inhibitors for treatment of cancer” (Kudos Pharmaceuticals Limited, priority 2003, dated 2012)

Assays:
[1] = system: chinese hamster ovary cells deficient in Brca2 (V-C8); experiment: Clonogenic assay, Brca2 deficient chinese hamster ovary cells (V-C8) vs Brca2-complemented derivative; assay type: cell-based; conditions: Brca2 deficient CHO cells vs complemented derivative
From the text: VC8 cells and the mouse Brca2 BAC complemented derivatives were as described in M. Kraakman-van der Zwet et al., Mol Cell Biol 22, 669-79 (2002)). ES cells defective in Brca2 function have been described previously (Tutt et al. (2002) EMBO Rep 3, 255-60). The construction of ES cells defective in Brca1 will be described elsewhere but have previously been validated (Foray et al. (2003) Embo J 22 2860-71). HBL100 cells were transfected with a pSUPER BRCA1 RNAi plasmid and selected with geneticin for 3 weeks. Clones were selected on the basis of their BRCA1 expression, as analysed by Northern blot.
(§1) For measurement of sensitivity to chemical inhibitors, cell cultures e.g. ES cells or mouse embryonic fibroblasts, in exponential growth were trypsinised and seeded at various densities in 6-well plates onto confluent monolayer of Mitomycin C (MMC) inactivated mouse embryonic fibroblasts and, where appropriate, treated with inhibitors after 18 h. For continuous exposure, cells were re-fed every 4 days with fresh medium and inhibitor. For timed exposures, inhibitor was added for the specified period then cells were washed and re-fed with fresh medium. After 10-14 days, cells were washed with PBS, fixed in methanol and stained with crystal violet. Colonies containing greater than approximately 50 cells were counted. Experiments were performed at least three times in triplicate.

[2] = system: Brca1 and Brca2 deficient cells; experiment: Mitotic chromosome analysis; assay type: cell-based, mouse; conditions: 24 hours treatment
Experimental: ES cells were seeded onto gelatin, treated for 24 hours with chemical inhibitors, followed by colcemid treatment for 1 hour. Cells were harvested, fixed, dropped onto slides, dried and stained with DAPI before chromosome analysis under a microscope.

[3] = system: wild-type, Fanca−/−, Fancc−/− and Fanca−/−c−/− cells; experiment: RAD51 focus formation in wild-type and FA fibroblasts; assay type: cell-based, mouse; conditions: 48 hours exposure
Experimental: The percentage of cells with >5 foci per cell was quantified.
(§2) ES cells were cultured for 48 h in various concentrations of PARP inhibitor fixed in 4% paraformaldehyde in PBS and permeabilised with 0.2% Triton X100 in PBS. Cells were stained with a 1:100 dilution of rabbit anti-Rad51 ployclonal antibody (Ab 551922, BD-Pharmingen, Oxford, UK). After washing, the primary antibody was visualised with Alexa Fluor-555 goat anti-rabbit IgG (Alexa) and nuclei with TO-PRO-3 iodide (Molecular Probes). Rad51 foci and γH2Ax foci were visualised with and quantified using a Leica TCS-SP2 confocal microscope.

PARP-3 = PARP-3 (Homo sapiens, UniProt Q9Y6F1); experiment: Selectivity: PARP-3 inhibition; assay type: biochemical; conditions: at concentrations up to 1 μM
Chain of PARP-3 (Q9Y6F1 whole entry, species assumed): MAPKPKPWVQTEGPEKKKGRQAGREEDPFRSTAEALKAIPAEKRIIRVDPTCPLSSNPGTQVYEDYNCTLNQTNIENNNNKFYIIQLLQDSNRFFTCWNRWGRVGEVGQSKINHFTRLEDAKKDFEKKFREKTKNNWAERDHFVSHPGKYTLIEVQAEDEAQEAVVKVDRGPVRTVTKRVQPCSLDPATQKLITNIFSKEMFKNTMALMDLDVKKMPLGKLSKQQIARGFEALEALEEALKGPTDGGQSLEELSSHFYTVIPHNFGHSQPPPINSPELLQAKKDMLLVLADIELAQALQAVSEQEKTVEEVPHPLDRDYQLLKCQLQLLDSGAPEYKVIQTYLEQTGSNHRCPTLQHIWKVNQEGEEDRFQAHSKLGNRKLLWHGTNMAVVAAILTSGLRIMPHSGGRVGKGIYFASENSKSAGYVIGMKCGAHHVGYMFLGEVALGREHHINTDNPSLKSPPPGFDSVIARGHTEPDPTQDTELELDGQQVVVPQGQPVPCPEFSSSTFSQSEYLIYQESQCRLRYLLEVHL

[4] = system: wild-type, Fanca−/−, Fancc−/− and Fanca−/−c−/− cells; experiment: γH2AX foci formation in wild-type and FA fibroblasts; assay type: cell-based, mouse; conditions: 48 hours exposure
tankyrase = conditions: at concentrations up to 1 μM
[5] = system: Brca1 or Brca2 deficient cells; experiment: Rad51 focus formation, Brca1 or Brca2 deficient ES cells; assay type: cell-based, mouse; conditions: 48 hours
Experimental: as §2
Wild-type, and Brca1 and Brca2 defective ES cells were exposed to differing concentrations of KU0058684 for 48 hours. Cells were then fixed and stained for RAD51 foci as described by Tarsounas (Tarsounas M et al Oncogene. 2003 22(8): 1115-23).

PARP-2 = PARP-2 (Homo sapiens, UniProt Q9UGN5); experiment: Inhibition of poly(ADP-ribose) polymerase activity of PARP-2; assay type: biochemical
Chain of PARP-2 (Q9UGN5 whole entry): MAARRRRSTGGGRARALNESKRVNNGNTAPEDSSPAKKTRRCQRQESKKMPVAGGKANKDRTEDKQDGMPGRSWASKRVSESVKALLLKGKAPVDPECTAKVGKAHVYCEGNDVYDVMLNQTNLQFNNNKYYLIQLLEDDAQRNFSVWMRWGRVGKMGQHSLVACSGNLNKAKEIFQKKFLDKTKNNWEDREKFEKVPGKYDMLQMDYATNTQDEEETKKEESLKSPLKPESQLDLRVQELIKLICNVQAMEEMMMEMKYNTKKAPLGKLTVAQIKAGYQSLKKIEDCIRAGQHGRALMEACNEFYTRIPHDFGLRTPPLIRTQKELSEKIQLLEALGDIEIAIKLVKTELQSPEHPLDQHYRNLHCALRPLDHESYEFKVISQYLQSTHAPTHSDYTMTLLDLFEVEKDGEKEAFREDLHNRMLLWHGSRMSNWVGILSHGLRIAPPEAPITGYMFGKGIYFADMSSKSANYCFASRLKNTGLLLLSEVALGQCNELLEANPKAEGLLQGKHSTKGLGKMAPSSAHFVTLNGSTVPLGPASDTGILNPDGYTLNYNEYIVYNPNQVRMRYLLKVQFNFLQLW

[6] = system: Brca1 and Brca2 deficient cells; experiment: Timed-exposure clonogenic assay, Brca1 and Brca2 deficient cells; assay type: cell-based, mouse
Experimental: as §1
Cells were exposed to different concentrations of KU0058684 for defined periods of time. The inhibitor was then removed and the effects measured using a clonogenic assay. The inhibitory effects of KU0058684 on clonal growth were apparent after a relatively short exposure time, 4 h, and were essentially complete by 24 h exposure (FIGS. 5 and 6).

[7] = system: Brca2 deficient VC8 cells; experiment: Neutral comet assay, Brca2 deficient VC8 cells; assay type: cell-based, chinese hamster; conditions: 30-hour exposure to 1 μM
Experimental: VC8 and VC8-BAC cells were plated 24 hours prior to treatment with 1 μM KU0058684 for 30 hours. All further work was carried out in the dark. Cells were washed with and scraped into PBS prior to Comet analysis as described (Lemay and Wood, 1999). Cells suspended in LMP agarose (0.5% in PBS) were spread onto Comet slides (Trevigen, Gaithersburg) and placed at 4 C until set, prior to lysis for 45 mins in 2.5M NaCl, 100 mM EDTA, 10 mM Tris Base, 1% sodium lauryl sarcosinate, 0.01% Triton X-100. Slides were transferred to TBE for 5 mins prior to electrophoresis at 18V for 15 mins. Slides were then fixed in 100% ethanol for 5 mins and air dried before the addition of SYBR green dye and visualisation by epifluorescence using fluorescien filters (Nikon). Comets were analysed using the Comet software module of the Lucia G imaging package as supplied by Nikon. 50 comets per data point were examined for each of three independent experiments and the mean tail moment calculated.

[8] = system: Fancd2−/−, Fanca−/−, Fancc−/− and Fanca−/−c−/− fibroblasts; experiment: Clonogenic survival, Fanconi anaemia mouse fibroblasts; assay type: cell-based; conditions: continuous exposure 12-14 days
Experimental: Mouse fibroblasts from wild-type, Fancd2^−/−, Fanca^−/−, Fancc^−/− and Fanca^−/−c^−/− animals were obtained from the Fanconi Anaemia Cell Repository, Oregon Health and Science University. These cells were maintained in DMEM, supplemented with FCS (10% v/v), glutamine and antibiotics. RAD54 and RAD52 Embryonic Stem (ES) cells were grown in DMEM, supplemented with FCS (15% v/v), glutamine, antibiotics, non-essential amino acids, 2-mercaptoethanol and Leukemia inhibitory Factor. HeLa cells (CCL-2) were obtained from ATCC (USA) and were maintained in DMEM, supplemented with FCS (10% v/v), glutamine and antibiotics.
as §1

HeLa cells = experiment: Cell viability, HeLa cells exposed to PARP inhibitor and caffeine; conditions: 1 mM Caffeine plus KU0058684
From the text: Error bars represent standard errors of the mean.
Caffiene was used to determine whether loss of ATM and ATR dependent DNA signalling pathways would induce sensitivity to PARP inhibition.

[9] = system: Brca2 deficient ES cell derived tumours; experiment: ES cell xenografts (teratomas) in athymic BALB/c nude mice; assay type: in vivo, mouse; conditions: 15 mg/kg intraperitoneal, two doses per day
Experimental: ES cell derived tumours (teratomas) were produced by subcutaneous injection of […] ES cells into 6-8 week athymic BALB/c nude (nu/nu) mice. Twenty mice were injected with Brca2 deficient ES cells and an identical cohort with isogenic wild type cells. Two days after cell injection, treatment with KU0058684 or vehicle was initiated. For three consecutive days, two Intraperitoneal doses of KU0058684 (or vehicle) were administered, six hour apart, each at a dosage of 15 mg/kg animal. This treatment was then stopped for five days and then reinitiated (as before) for another three consecutive days. Growth of tumours was monitored from a minimum volume of 0.3 cm^3. The data in FIG. 16 represents two separate experiments involving in total 40 animals.

[10] = timed exposure, inhibitor then removed

## O=C1CCC(=O)N1c1cc(Cc2n[nH]c(=O)c3ccccc23)ccc1F [KU0058684]
[1]
  enhanced sensitivity compared to a Brca2-complemented derivative: greater than 1000 fold
[2]
  mitotic chromosome aberrations: frequent major aberrations
[3]
  RAD51 focus formation: Induction of RAD51 focus formation
PARP-3
  inhibition of PARP-3: do not inhibit
[4]
  γH2AX foci: induction of γH2AX foci in all cells
tankyrase
  inhibition of tankyrase: do not inhibit
[5]
  Rad51 foci formation: no foci were induced
PARP-2
  inhibition of poly(ADP-ribose) polymerase activity of PARP-1 and PARP-2: potent and specific inhibitors
[6]; short exposure followed by 10-14 days in the absence of inhibitor
  reversibility of the effects of PARP inhibition: irreversible
[6]; [10]
  exposure time after which inhibitory effects on clonal growth were apparent: 4 h
  exposure time by which inhibitory effects on clonal growth were essentially complete: ≤ 24 h
[7]
  increase in the tail moment: 4.7 fold
[8]
  sensitivity of FA gene deficient fibroblasts compared to wild-type cells: results in sensitivity
HeLa cells
  sensitivity of HeLa cells to PARP inhibitor with caffeine: increased sensitivity
[9]
  growth of Brca2 deficient tumours relative to wild-type tumours: dramatically reduce the growth
